Legend:
[1] = test system: SIRT1, AMPK and ACC; test: Western blot of SIRT1, AMPK and ACC in HepG2 cells; assay type: cell-based
Procedure: (§1) HepG2 hepatocytes were cultured in low glucose Dulbecco's modified Eagle medium (DMEM) (Gibco, Life Technologies, Grand Island, NY, USA) to which 10% FBS (Gibco, Life Technologies, USA), L-glutamine, and 1% penicillin/streptomycin solution were added. The cells were manipulated in a humidified incubator at 37° C. containing 5% CO2 under a sterile condition. The cells were sub-cultured as soon as they reached confluence. The cells were continuously monitored under a bright-field microscope (Nikon Eclipse TS100, Tokyo, Japan), and the medium was replaced every 3 days. For cell viability assays, the cells were seeded and treated with 0 μM-2000 μM camphorquinone (CQ) for 24 hours, then incubated in MTT solution (0.5 mg/ml) for 2 hours, and then formazan crystals were dissolved using dimethyl sulfoxide (DMSO). Cell viability was evaluated using a spectrophotometer (Multiskan FC, Thermo Fisher Scientific).
(§2) Total proteins were extracted with a RIPA lysis buffer system including phenylmethylsulfonyl fluoride (PMSF), sodium orthovanadate (Na3VO4) and protease inhibitor cocktail (Santa Cruz Biotechnology) at 4° C. for 30 minutes, and the extracted sample was centrifuged at 16,000×g for 20 minutes. The concentration of total proteins was quantified using a Pierce BCA Protein Assay Kit (Thermo Fisher Scientific). The proteins (30 to 50 μg) were loaded and separated through sodium dodecyl sulfate-polyacrylamide gel electrophoresis (SDS-PAGE), and then blotted with a PVDF membrane (GE Healthcare, Germany). In order to prevent nonspecific binding of the primary antibodies, the membrane was blocked with TBST including 1% non-fat dry milk for 1 hour and 30 minutes at room temperature (RT). Then, the membrane was incubated overnight at 4° C. together with each primary antibody. The secondary antibodies were conjugated with horseradish peroxidase and visualized with an enhanced chemiluminescence detection kit (GE Healthcare). Analysis of density measurement was performed using Image J software.

[2] = test system: SREBP1, FASN, ChREB, CPT1a and CPT1b; test: qRT-PCR of lipid production and β-oxidation genes in liver of diabetic mouse model; assay type: in vivo, C57BL/6 mice; conditions: CQ-L, 10 mg/kg/day i.p., vs HFD mouse group
Procedure: (§3) 6-week-old male C57BL/6 mice (weight 22±2 g) were purchased from Samtako Bio Korea Co., Ltd. (Osan, Gyeonggi-do, Korea). The mice were maintained at 23 to 25° C. under a 12 h light-dark cycle with free access to food and water in a pathogen-free animal facility center. All animal experiments were approved in accordance with the Chosun University Institutional Animal Care and Use Committee (CIACUC2020-S0009). All animals were fed normal chow pellets (ND, SAM #31, Samtako, Inc.), and went through a period of adjustment for 1 week. During the following week, the animals were randomly classified according to the body weight, and one-third of the animals were classified as normal controls to be fed normal chow pellets throughout the study. On the other hand, the remaining animals were fed a high-fat diet (HFD; 60% Kcal energy as fat) (study diet; #D12492; New Brunswick, NJ 08901 USA) for 2 weeks in order to induce insulin resistance, and the diet was continued until the study ended. Then, STZ (30 mg/kg, i.p.) was administered to the animals for 5 consecutive days from the 4th week to induce T2DM therein. On the other hand, the normal control animals were administered the same volume of citrate buffer instead of the STZ. Blood glucose levels of the animals were measured at the end of week 5, and animals showing a fasting blood glucose level (FBG)≥200 mg/dl were selected for the study. Finally, the animals were divided into the following 4 groups; Group 1: saline-treated normal control mice (Control), Group 2: saline-treated diabetic control mice (HFD), Group 3: camphorquinone (10 mg/kg/day, i.p.)-treated diabetic mice (CQ-L), and Group 4: camphorquinone (30 mg/kg/day, i.p.)-treated diabetic mice (CQ-H). […]
(§4) Total RNA was separated from liver tissue of the mouse model using RNAisoPlus (Takara). Then, total RNA (2.5 μg) was reverse transcribed using a Primescript™ II 1st strand cDNA synthesis kit (Takara), and quantified using a Power SYBR Green PCR Master mix (Applied BioSystems). […]

[3] = test system: IL1α, IL1β, IL6, p53, TNFα and RAGE; test: qRT-PCR of inflammatory markers in liver of diabetic mouse model; assay type: in vivo, C57BL/6 mice; conditions: CQ-L, 10 mg/kg/day i.p., vs HFD mouse group
Procedure: 6-week-old male C57BL/6 mice (weight 22±2 g) were purchased from Samtako Bio Korea Co., Ltd. (Osan, Gyeonggi-do, Korea). The mice were maintained at 23 to 25° C. under a 12 h light-dark cycle with free access to food and water in a pathogen-free animal facility center. All animal experiments were approved in accordance with the Chosun University Institutional Animal Care and Use Committee (CIACUC2020-S0009). All animals were fed normal chow pellets (ND, SAM #31, Samtako, Inc.), and went through a period of adjustment for 1 week. During the following week, the animals were randomly classified according to the body weight, and one-third of the animals were classified as normal controls to be fed normal chow pellets throughout the study. […] Blood glucose levels of the animals were measured at the end of week 5, and animals showing a fasting blood glucose level (FBG)≥200 mg/dl were selected for the study. […]
as §4

[4] = test system: HFD+STZ-induced type 2 diabetic mice; test: Body weight and liver weight in HFD+STZ-induced type 2 diabetic mice; assay type: in vivo, C57BL/6 mice; conditions: CQ-L, 10 mg/kg/day i.p., 3 weeks
Procedure: as §3, with “study.” for “study. Finally, the animals were divided into the following 4 groups; Group 1: saline-treated normal control mice (Control), Group 2: saline-treated diabetic control mice (HFD), Group 3: camphorquinone (10 mg/kg/day, i.p.)-treated diabetic mice (CQ-L), and Group 4: camphorquinone (30 mg/kg/day, i.p.)-treated diabetic mice (CQ-H).”

[5] = test system: HepG2 cells; test: MTT assay, cytotoxicity in HepG2 cells; assay type: cell-based; conditions: 24 hours
Procedure: as §1

[6] = test system: HFD+STZ-induced type 2 diabetic mice; test: Glucose tolerance test in HFD+STZ-induced type 2 diabetic mice; assay type: in vivo, C57BL/6 mice; conditions: 1.5 g/kg d-glucose i.p., within 2 hours, vs HFD mouse group
Procedure: as §3, with “study.” for “study. Finally, the animals were divided into the following 4 groups; Group 1: saline-treated normal control mice (Control), Group 2: saline-treated diabetic control mice (HFD), Group 3: camphorquinone (10 mg/kg/day, i.p.)-treated diabetic mice (CQ-L), and Group 4: camphorquinone (30 mg/kg/day, i.p.)-treated diabetic mice (CQ-H).”

[7] = test system: AMPK and SIRT1; test: Immunoblotting of AMPK and SIRT1 in liver tissue of diabetic mouse model; assay type: in vivo, C57BL/6 mice; conditions: vs HFD mouse group
Procedure: as §2
as §3, with “study.” for “study. Finally, the animals were divided into the following 4 groups; Group 1: saline-treated normal control mice (Control), Group 2: saline-treated diabetic control mice (HFD), Group 3: camphorquinone (10 mg/kg/day, i.p.)-treated diabetic mice (CQ-L), and Group 4: camphorquinone (30 mg/kg/day, i.p.)-treated diabetic mice (CQ-H).”

[8] = test system: LKB1 and ERK; test: LKB1 and ERK signals in liver tissue of diabetic mouse model; assay type: in vivo, C57BL/6 mice; conditions: vs HFD mouse group
Procedure: as §2
as §3, with “study.” for “study. Finally, the animals were divided into the following 4 groups; Group 1: saline-treated normal control mice (Control), Group 2: saline-treated diabetic control mice (HFD), Group 3: camphorquinone (10 mg/kg/day, i.p.)-treated diabetic mice (CQ-L), and Group 4: camphorquinone (30 mg/kg/day, i.p.)-treated diabetic mice (CQ-H).”

[9] = test system: LKB1, PGC1a and CRTC2; test: Expression of LKB1, PGC1a and CRTC2 in liver of diabetic mouse model; assay type: in vivo, C57BL/6 mice; conditions: CQ treatment vs HFD+STZ-treated HFD mouse group
Procedure: as §3, §4

[10] = test system: HFD+STZ-induced type 2 diabetic mice; test: Fasting blood glucose in HFD+STZ-induced type 2 diabetic mice; assay type: in vivo, C57BL/6 mice; conditions: 3 weeks, vs HFD+STZ-treated mice
Procedure: as §3, with “study.” for “study. Finally, the animals were divided into the following 4 groups; Group 1: saline-treated normal control mice (Control), Group 2: saline-treated diabetic control mice (HFD), Group 3: camphorquinone (10 mg/kg/day, i.p.)-treated diabetic mice (CQ-L), and Group 4: camphorquinone (30 mg/kg/day, i.p.)-treated diabetic mice (CQ-H).”

[11] = test system: AMPK, SIRT1 and ACC; test: Western blot of AMPK, SIRT1 and ACC in FFA-treated HepG2 fatty hepatocyte model; assay type: cell-based; conditions: FFA-treated hepatocytes, 500 μM CQ 24 hours
Procedure: (§5) Free fatty acids (FFA) were prepared from a combination of palmitic acid (PA) and oleic acid (OA). In short, stocks of 100 mM palmitic acid and 100 mM oleic acid dissolved in sodium hydroxide were prepared. These stock solutions were conjugated with 10% BSA (1:9) solution. All stock solutions were stored at −20° C. The cells were seeded and attached to a 6-well plate, then the cells were treated with a mixture of 0.2 mM PA and 0.4 mM OA (1:2) for 24 hours or the same volume of 10% BSA solution for 24 hours. FFA was removed the next day and 500 μM of camphorquinone was added to the mixture and left for 24 hours. Thereafter, the plate was used for protein and oil red staining.
as §2

[12] = test system: FFA-treated HepG2 cells; test: Oil Red O staining, lipid accumulation in FFA-treated HepG2 cells; assay type: cell-based; conditions: FFA-treated HepG2 cells (0.2 mM PA + 0.4 mM OA 24 hours), then 500 μM CQ 24 hours
Procedure: as §5
Oil Red O stock solution dissolved in isopropyl alcohol was prepared by magnetic stirring at room temperature for 2 hours, and the prepared solution was stored at room temperature. Then, Oil Red O working solution was prepared by mixing 1.5 parts of stock solution and 1 part of water (3:2), and incubated at 4° C. for 10 minutes. The solution was filtered through a 0.02 μm filter and used within 6 hours. […] The stained lipid droplets were dissolved in 2-propanol, and absorbance at 520 nm was measured to quantify lipid accumulation.

[13] = test system: lipid synthesis marker (ChREB) and lipid β-oxidation markers (CES1, CES2 and CPT1A); test: qRT-PCR of lipid metabolism genes in FFA-treated cell model; assay type: cell-based
[14] = by treatment concentration of CQ

Structure (SMILES): c1cc(-c2cnn3cc(-c4ccc(OCCN5CCCCC5)cc4)cnc23)ccn1 [Compound C, reference compound]
- CQ-induced ACC protein expression ([1]; CC treatment together with CQ): significantly decreased
- CQ-induced AMPK protein expression ([1]; CC treatment together with CQ): significantly decreased
- CQ-induced SIRT1 protein expression ([1]; CC treatment together with CQ): significantly decreased

Structure (SMILES): CC12CCC(C(=O)C1=O)C2(C)C (stereo not drawn) [camphorquinone]
- expression of FASN (lipid production) in liver [2]: significantly decreased
- expression of SREBP1 (lipid production) in liver [2]: significantly decreased
- expression of the lipid β-oxidation gene CPTa in liver [2]: significantly increased
- expressions of most inflammatory markers in the liver (IL1α, IL1β, IL6, p53, TNFα and RAGE) [3]: significantly decreased
- body weight [4]: gradually decreased
- liver weight [4]: gradually decreased
- cell viability (MTT assay) ([5]; at a high concentration (above 500 μM; 0-2000 μM tested)): decreased
- cytotoxicity (MTT assay) ([5]; up to 500 μM): No cytotoxicity
- SIRT1, AMPK and ACC expression ([1]; CQ at 500 μM, increase was decreased at the high concentration): significant increase
- ACC expression [1, 14]: significantly increased in a dose-dependent manner
- AMPK expression [1, 14]: significantly increased in a dose-dependent manner
- SIRT1 expression [1, 14]: significantly increased in a dose-dependent manner
- glucose tolerance ([6]; CQ-H, 30 mg/kg/day i.p.): improved
- glucose tolerance ([6]; CQ-L, 10 mg/kg/day i.p.): improved
- AMPK in liver tissue ([7]; CQ-H, 30 mg/kg/day i.p.): activated
- SIRT1 in liver tissue ([7]; CQ-H, 30 mg/kg/day i.p.): activated
- AMPK in liver tissue ([7]; CQ-L, 10 mg/kg/day i.p.): activated
- SIRT1 in liver tissue ([7]; CQ-L, 10 mg/kg/day i.p.): activated
- ERK marker in liver tissue ([8]; CQ-H, 30 mg/kg/day i.p.): highly expressed
- LKB1 marker in liver tissue ([8]; CQ-H, 30 mg/kg/day i.p.): highly expressed
- ERK marker in liver tissue ([8]; CQ-L, 10 mg/kg/day i.p.): highly expressed
- LKB1 marker in liver tissue ([8]; CQ-L, 10 mg/kg/day i.p.): highly expressed
- expression of CRTC2 in liver [9]: increased
- expression of LKB1 in liver [9]: increased
- expression of PGC1a in liver [9]: increased
- fasting blood glucose levels ([10]; CQ-H, 30 mg/kg/day i.p.): significantly decreased
- fasting blood glucose levels ([10]; CQ-L, 10 mg/kg/day i.p.): significantly decreased
- activation of ACC [11]: restored
- activation of AMPK [11]: restored
- activation of SIRT1 [11]: restored
- lipid accumulation (Oil red O staining) [12]: reduced
- expression of lipid β-oxidation marker [13]: increased
- expressions of lipid synthesis markers [13]: decreased

Source: patent publication US12370152B2, “Pharmaceutical composition for preventing or treating metabolic diseases” (INDUSTRY ACADEMIC COOPERATION FOUNDATION CHOSUN UNIVERSITY, priority 2021, dated 2025)
